According to article PMC4861463, “A Molecular Switch Abrogates Glycoprotein 100 (gp100) T-cell Receptor (TCR) Targeting of a Human Melanoma Antigen” (The Journal of Biological Chemistry, 2016):
“Also recorded” adds a separate entry of the source.

Key:
[1] = target: PMEL17 TCR (TRAV21 TRBV7-3); assay: SPR affinity analysis of PMEL17 TCR binding to HLA-A*0201-peptide complexes; set-up: species or system Human; details: SPR equilibrium analysis, triplicate; for PMEL17 TCR (TRAV21 TRBV7-3), affinity KD: biotinylated HLA-A*0201-peptide complex (500–600 RU) on streptavidin CM5 chip, 9–10 serial dilutions of soluble TCR
[2] = target: gp100 TCR (TRAV17 TRBV19); assay: SPR affinity analysis of gp100 TCR binding to HLA-A*0201-peptide complexes; set-up: species or system Human; details: SPR equilibrium analysis, triplicate; for gp100 TCR (TRAV17 TRBV19), affinity KD: biotinylated HLA-A*0201-peptide complex (500–600 RU) on streptavidin CM5 chip, 9–10 serial dilutions of soluble TCR
[3] = system: gp100 TCR-transduced CD8+ T-cells; assay: MIP-1β production by ELISA after stimulation with peptide-pulsed T2 target cells; format: cell-based, Human; details: peptide titration; 6 × 10^4 T2 cells pulsed 1 h + 3 × 10^4 T-cells, overnight; ELISA of supernatant; duplicate; Fig. 6A
[4] = system: gp100 TCR-transduced CD8+ T-cells; assay: 4-h 51Cr release cytotoxicity assay against peptide-pulsed T2 targets; format: cell-based, Human; details: 37 °C, effector/target ratio 5, 51Cr-labelled T2 cells, peptide titration, duplicate, Fig. 6B
[5] = system: gp100-specific TCR-transfected human T-cells; details: cited from earlier work
Description: Thus, in order to study the individual contribution of the peptide residues invo ... || We also provide insight into the role of each residue in gp100^280–288 during TCR recognition by performing an alanine scan mutagenesis with two different gp100^280–288-specific αβTCRs. […] These observations are consisten ...

Row | Kd ([1]; read-out: PMEL17 TCR (TRAV21 TRBV7-3), affinity KD, biotinylated HLA-A*0201-peptide complex on streptavidin CM5 chip) | Kd ([2]; read-out: gp100 TCR (TRAV17 TRBV19), affinity KD, biotinylated HLA-A*0201-peptide complex on streptavidin CM5 chip) | PMEL17 TCR (TRAV21 TRBV7-3), affinity KD ([1]; listed as A2-YLE-3A) | gp100 TCR (TRAV17 TRBV19), affinity KD [2] | gp100 TCR (TRAV17 TRBV19), affinity KD ([2]; listed as A2-YLE-3A) | Sequence | MIP-1β production [3] | specific lysis of peptide-pulsed target cells [4] | PMEL17 TCR (TRAV21 TRBV7-3), affinity KD [1] | agonist activity for a different gp100-specific TCR [5]
1 | > 1000 µM | > 1000 µM | – | – | – | YLEPAPVTA [YLE-5A] | No MIP-1β production | no cytotoxic T lymphocyte-mediated lysis | – | –
2 | – | – | completely abrogated binding | No binding | completely abrogated binding | YLAPGPVTA [YLE-3A] | No MIP-1β production | no cytotoxic T lymphocyte-mediated lysis | complete absence of measurable binding; also recorded: No binding | null agonist
